B1: heparanase: Single chain GS3 heparanase construct comprising the 8 and 50 kDa subunits, purified from baculovirus-infected cells (protein)
chain: QDVVDLDFFTQEPLHLVSPSFLSVTIDANLATDPRFLILLGSPKLRTLARGLSPAYLRFGGTKTDFLIFDPKKESTFEERSYWQSQVNQDICKYGSIPPDVEEKLRLEWPYQEQLLLREHYQKKFKNSTYSRSSVDVLYTFANCSGLDLIFGLNALLRTADLQWNSSNAQLLLDYCSSKGYNISWELGNEPNSFLKKADIFINGSQLGEDFIQLHKLLRKSTFKNAKLYGPDVGQPRRKTAKMLKSFLKAGGEVIDSVTWHHYYLNGRTATKEDFLNPDVLDIFISSVQKVFQVVESTRPGKKVWLGETSSAYGGGAPLLSDTFAAGFMWLDKLGLSARMGIEVVMRQVFFGAGNYHLVDENFDPLPDYWLSLLFKKLVGTKVLMASVQGSKRRKLRVYLHCTNTDNPRYKEGDLTLYAINLHNVTKYLRLPYPFSNKQVDKYLLRPLGPHGLLSKSVQLNGLTLKMVDDQTLPPLMEKPLRPGSSLGLPAFSYSFFVIRNAKVAACI

Columns and labels:
[1] = test system: procoagulant effect of heparanase; test: Heparanase-induced coagulation activation in ICR mice, plasma TAT ELISA; type: in vivo; settings: heparanase 0.5 mg/kg i.p.; peptide 1 or 2 mg/kg s.c. after 30 min; blood after 4 hours
Description: (§1) Thrombin-antithrombin complex (TAT) complex was evaluated according to the manufacturer recommendations by Enzygnost® TAT micro ELISA purchased from Siemens (Marburg, Germany). D-dimer assay was performed on the STA-R evolution analyzer (Diagnostica Stago) using recombinant STA-LIATEST D-DI kit (Diagnostica Stago).
Heparanase (Hepa) was injected intra-peritoneal to ICR mice at a dose of 0.5 mg/kg. After 30 min. peptides corresponding to SEQ ID NOs: 2-5 and 7 were injected at a dose of 1 mg/kg (dashed fill) or 2 mg/kg (solid fill) subcutaneously between the shoulders, into the loose skin over the neck. Blood was drawn after 4 hours, and the plasma was analyzed by ELISA for thrombin-antithrombin (TAT) levels.

IVC thrombus = test: Inferior vena cava (IVC) thrombosis model; type: in vivo, mice; settings: 2 mg/kg s.c. immediately before IVC exposure; no heparanase injected
Description: A large thrombus located distal to the IVC ligation (FIG. 6A, panel I) and after IVC was harvested (FIG. 6A, panel II), was observed. This observation was verified by H&E staining (FIG. 6A, panel III, ×10; FIG. 6A, panel IV, ×100). In subsequent experiments, peptides 3, 4 and 5 were introduced subcutaneously, at a dose of 2 mg/kg, immediately before the IVC exposure. Heparanase was not injected in this line of experiments. Each experimental group included 5 mice. The IVC was re-exposed (FIG. 6A, panel V) and then dissected (FIG. 6A, panel VI). Note that only engorged blood was present and thrombus distal to the IVC ligation was absent. This observation was verified by H&E staining (FIG. 6A, panel VII, ×10; FIG. 6A, panel VIII, ×100). […] Images were visualized through a 0.82 MDC objective lens, captured with a Nikon […] digital camera (Nikon, Tokyo, Japan), and processed with Adobe Photoshop software (Adobe Systems, San Jose, Calif.).

[2] = test system: B16 mouse melanoma tumors; test: Tumor vascularization, MSB stained tumor sections; type: in vivo, mice; settings: MSB staining
[3] = test system: arterial thrombus in the carotid artery; test: Carotid artery 90% stenosis arterial thrombosis, MSB staining; type: in vivo, mice; settings: single s.c. injection, 2 mg/kg; 24 hours after 90% stenosis
Description: In a complimentary experiment, mice returned to normal activity after being subjected to stenosis of 90% of the carotid artery. 24 hours later mice were sacrificed. Sections of the carotid artery were analyzed by MSB (Martin, Scarlet, Blue) staining. In the treatment group, following a single s.c. injection of the peptides, almost no fibrin (thrombus) was formed, while in the control group large arterial thrombus was observed. The results are exemplified in FIG. 6B for a control mouse (left panel) and a mouse treated with 2 mg/kg of the peptide set forth in SEQ ID NO: 4 (right panel).

coagulation activation = test: Intra-peritoneal heparanase injection to ICR mice, plasma TAT, D-Dimer, IL-6; type: in vivo; settings: 0.5 mg/kg i.p.; blood after 4 hours
Description: as §1
Material and method used as in Example 1. Heparanase (Hepa) was injected intra-peritoneal at a dose of 0.5 mg/kg to ICR mice. After 4 hours blood was drawn and the plasma was studied by ELISA to thrombin-antithrombin complex (TAT), D-Dimer as markers of coagulation activation and IL-6 as marker of sepsis severity. Please note that when compared with the control group (PBS) heparanase (Hepa) increased the levels of TAT and D-Dimer in a similar magnitude to that of LPS injected at a dose of 5 mg/kg that cause a moderate sepsis (FIG. 1A, B).

| Molecule | procoagulant effect of heparanase (plasma TAT levels) [1] | clot formation / thrombus distal to the IVC ligation (IVC thrombus) | further results |
| --- | --- | --- | --- |
| NNFYTWEACDDACW [SEQ ID NO: 2, peptide derived from TFPI-2] | partially inhibited |  |  |
| NANNFYTWEAC [SEQ ID NO: 7, peptide derived from TFPI-2] | partially inhibited |  |  |
| AEICLLPLDYGPCR [SEQ ID NO: 4, peptide derived from TFPI-2] |  | absent | tumor vascularization [2]: little to null vascularization; fibrin (thrombus) formation in carotid artery [3]: early thrombus |
| NNAEICLLPLDYGP [SEQ ID NO: 5, peptide derived from TFPI-2] |  | absent |  |
| ICLLPLDYGPCRAL [SEQ ID NO: 3, peptide derived from TFPI-2] |  | absent |  |
| B1 |  |  | D-Dimer level compared with control group (PBS) (coagulation activation): increased; IL-6 level compared with control group (coagulation activation): did not increase; TAT level compared with control group (PBS) (coagulation activation): increased |

Reference: patent publication US10105410B2, “Heparanase inhibitory peptides and use thereof for treating clinical pathologies” (RAMBAM MED-TECH LTD., priority 2014, dated 2018)
